Data published in patent US8480620B2, “Coatings with tunable solubility profile for drug-coated balloon” (Abbott Cardiovascular Systems Inc., priority 2009, dated 2013).

Experiment: Solubility enhancement of zotarolimus with select excipient solutions
Assay type: physicochemical
Settings: Phosphate buffered saline; n = 3
Source text: Table 1 provides non-limiting examples of the solubility data for excipients that can be used in accordance with the disclosed subject matter:
As illustrated, in Table 1 the excipients provide for increased solubility for the cytostatic drug, zotarolimus, as compared to saline alone.

## CO[C@H]1C[C@@H]2CC[C@@H](C)[C@@](O)(O2)C(=O)C(=O)N2CCCC[C@H]2C(=O)O[C@H]([C@H](C)C[C@@H]2CC[C@H](n3cnnn3)[C@H](OC)C2)CC(=O)[C@H](C)/C=C(\C)[C@@H](O)[C@@H](OC)C(=O)[C@H](C)C[C@H](C)/C=C/C=C/C=C/1C [Zotarolimus, zotarolimus]
  Zotarolimus Solubility: 0.53 µg/mL
